The values below are quoted from earlier work in US5246706A, “Device for administering bimakalim transdermally” (Cygnus Therapeutic Systems, priority 1991, dated 1993).

The test system of one data set is potassium channel. The following applies: background statement.
The conditions of data set [1]: known.
The conditions of data set [2]: octanol/phosphate buffer, pH 7.4; known.

Consider `CC1(C)Oc2ccc(C#N)cc2[C@@H](n2ccccc2=O)[C@@H]1O` (single isomer, unassigned) [(-)-trans-3,4-dihydro-4-(1,2-dihydro-2-oxo-1-pyridyl)-3-hydroxy-2,2-dimethyl-2H-1-benzopyran-6-carbonitrile], for which the “potassium channel activating properties” value in the data set with potassium channel is reported as “exhibits potassium channel activating properties”.

For `CC1(C)C=C(n2ccccc2=O)c2cc(C#N)ccc2O1` [Bimakalim, 4-(1,2-dihydro-2-oxo-1-pyridyl)-2,2-dimethyl-2H-1-benzopyran-6-carbonitrile], in data set [1], the water solubility result is “approximately 0.7 mg/ml”. Moreover, the partition coefficient in data set [2] is on record as 27.0. In the data set on potassium channel, the “potassium channel activating properties” value is reported as “potassium channel activating drug”.
